The values that follow come from patent US20250073184A1, “CANNABIGEROQUINONE COMPOUNDS, COMPOSITIONS INCLUDING SUCH COMPOUNDS, AND USES OF SUCH COMPOUNDS AND COMPOSITIONS” (Juva Life, Inc., priority 2021, published 2025).

Experiment [1] has as its target T1, Recombinant human ALOX15 (Arachidonate 15-Lipoxygenase) (Homo sapiens, UniProt P16050).
T1 construct: full length encompassing amino acids 2-662(end); purchased BPS Biosciences 50220
T1 sequence (P16050 2-662): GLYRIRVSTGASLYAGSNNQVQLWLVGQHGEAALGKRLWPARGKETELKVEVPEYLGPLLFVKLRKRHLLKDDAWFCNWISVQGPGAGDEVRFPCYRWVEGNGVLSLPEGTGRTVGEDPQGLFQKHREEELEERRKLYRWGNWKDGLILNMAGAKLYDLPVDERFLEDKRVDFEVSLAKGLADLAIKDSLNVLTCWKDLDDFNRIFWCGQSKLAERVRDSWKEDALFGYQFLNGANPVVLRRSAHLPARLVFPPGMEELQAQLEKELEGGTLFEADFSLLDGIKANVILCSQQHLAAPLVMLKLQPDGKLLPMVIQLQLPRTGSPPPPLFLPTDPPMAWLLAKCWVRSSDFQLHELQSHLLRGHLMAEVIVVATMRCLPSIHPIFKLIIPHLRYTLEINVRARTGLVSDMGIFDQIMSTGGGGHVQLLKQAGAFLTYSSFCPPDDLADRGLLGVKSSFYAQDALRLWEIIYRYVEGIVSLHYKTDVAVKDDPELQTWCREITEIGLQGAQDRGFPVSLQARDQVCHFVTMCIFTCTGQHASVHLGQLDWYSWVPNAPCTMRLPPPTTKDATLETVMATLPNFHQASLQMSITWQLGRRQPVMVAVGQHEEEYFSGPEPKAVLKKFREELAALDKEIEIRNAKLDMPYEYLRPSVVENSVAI
As to the kind of experiment: Biochemical LOX-15 assay. Here is the method: The LOX-15 assay was performed in assay buffer comprising: 50 mM Tris (pH 7.5), 5 uM DHR, 50 uM AA, and 50 nM recombinant enzyme. Serially diluted compounds were prepared in DMSO in Echo qualified 384 well plates. An assay buffer was then prepared […] supplemented 10 uM DHRA. 10 uL of the supplemented buffer was dispensed into control (no enzyme) wells in the black 384 well assay plate. Next, a 2× enzyme solution was prepared, comprising 100 nM LOX-15 enzyme in the supplemented assay buffer. 10 μL of the 2× enzyme solution was then dispensed into test wells in the black 384 well assay plate. Serially diluted compounds were added to the assay plate by acoustic dispensing (Labcyte 550). Control wells received DMSO only.
Next, the 2× substrate was prepared to comprise 100 uM arachidonic acid in the assay buffer. 10 uL of the 2× substrate was then added to all wells in the assay plate. The plate was incubated for 3 hours.
where RFU100% is fluorescence in control samples without compound, RFU0% is fluorescence in control samples without LOX-15, and RFUcompound fluorescence in a sample with compound.
The calculated %-Inh values were plotted against compound concentration. To determine EC50 values, dose-response curves were fitted by a 4-parameter sigmoid inhibition model using XLFit® software (IDBS).

Experiment [2] has as its system IL10. As to the kind of experiment: IL10 secretion assay in human PBMCs (PHA-M, ELISA). To be noted: for EC50: read-out: Inhibitory Activity EC50, IL10. Type of experiment: cell-based. As to the method:
Fetal bovine serum (FBS) was obtained from ThermoFisher (Cat #16000044). • Other reagents: 96 well TC plates were obtained from ThermoFisher (Cat #07-2000-90).
Cryopreserved PBMCs were thawed in a water bath and transferred to 50 mL polypropylene tubes. The cells were washed two times with 25 mL of RPMI medium supplemented with 5% of regular FBS and re-suspended at a density of 1.5^^6 cells/mL. The cells were plated into 96 well TC late (100 uL/well). Serially diluted compound was added to the cells in duplicate wells for each concentration. Control wells received DMSO only (0.3% final). The cells were pre-incubated with compound for 2 hr. After pre-incubation, the cells were stimulated by PHA-M (10 ug/mL) for 40 hr. Control samples with and without PHA-M in the absence of compound were assembled in each test plate. […] ELISA readout (optical density at 450 nm) is commensurable with the amount of IL10 produced by the cells. Assay window was determined in each experiment by comparing average OD450 values in stimulated and un-stimulated samples in the absence of compound. ELISA calibration was performed in each detection plate using serially diluted recombinant human IL10 standard, to ensure that OD450 values for all test samples were within linear range of detection.%-Inhibition by compound was calculated using following equation:
where OD450100% is optical density in control samples stimulated with PHA-M without compound, OD4500% is optical density in unstimulated control samples, and OD450compound is optical density in a sample stimulated with PHA-M in the presence of compound. The calculated %-Inh values were plotted against compound concentration. To determine IC50 values, dose-response curves were fitted by a 4-parameter sigmoid inhibition model using XLFit® software (IDBS).
A general note: In an ELISA, binding on a coated surface is turned into a signal by an enzyme label.

In experiment [3] the test system is TNFa. As to the kind of experiment: TNFa secretion assay in human PBMCs (LPS, ELISA). Type of experiment: cell-based. The settings on record: read-out: Inhibitory Activity EC50, TNF. Here is the method:
Fetal bovine serum (FBS) was obtained from ThermoFisher (Cat #16000044). • Other reagents: 96 well TC plates were obtained from ThermoFisher (Cat #07-2000-90). LPS was obtained from Sigma (Cat #L3024).
TNF-alpha was assessed using a standard ELISA protocol. Cryopreserved PBMCs were thawed in a water bath and transferred to 50 mL polypropylene tubes. The cells were washed two times with 25 mL of RPMI medium supplemented with 5% of heat-inactivated FBS and re-suspended at a density of 4.5^^6 cells/mL. The cells were plated into 96 well TC late (100 uL/well). Serially diluted compound was added to the cells in duplicate wells for each concentration. Control wells received DMSO only (0.3% final). The cells were pre-incubated with compound for 1 hr. After pre-incubation, the cells were stimulated by LPS (100 ng/mL) for 6 hr. Control samples with and without LPS in the absence of compound were assembled in each test plate. TNFa was detected in media supernatants by using a sandwich anti-TNFa ELISA kit (BD Biosciences) according to protocol provided by the manufacturer. ELISA readout (optical density at 450 nm) is commensurable with the amount of TNFa produced by the cells. Assay window was determined in each experiment by comparing average OD450 values in stimulated and un-stimulated samples in the absence of compound. ELISA calibration was performed in each detection plate using serially diluted recombinant human TNFa, to ensure that OD450 values for all test samples were within linear range of detection.%-Inhibition by compound was calculated using following equation:
where OD450100% is optical density in control samples stimulated with LPS without compound, OD4500% is optical density in unstimulated control samples, and OD450compound is optical density in a sample stimulated with LPS in the presence of compound.
The calculated %-Inh values were plotted against compound concentration. To determine IC50 values, dose-response curves were fitted by a 4-parameter sigmoid inhibition model using XLFit® software (IDBS).

The mark [4] stands for this setting: PBMC, human PBMCs, PHA-M 10 ug/mL 40 hr.
The mark [5] stands for this setting: PBMC, human PBMCs, LPS 100 ng/mL 6 hr.
[6] abbreviates: recombinant enzyme, read-out: Inhibitory Activity EC50, 15-Lox.

Where two headings read alike, the source gives them in different places.

By EC50 is commonly meant the concentration giving half of the maximal effect. For `CCCCCc1cc(OC(C)=O)c(C/C=C(\C)CCC=C(C)C)c(O)c1OC(C)=O` [Formula XLIII], the EC50 in experiment [1] came to 8.4 µM; in experiment [2] (setting [4]), 1.2 µM; in experiment [3] (setting [5]), 8.68 µM. Besides, in experiment [2], the “inhibitory activity on IL-10” value is given as “particular strong inhibitory activity”.

In the case of `CCCCCc1cc(OC)c(C/C=C(\C)CCC=C(C)C)c(O)c1OC` [Formula XLII], the EC50 in experiment [1] is 18 µM; in experiment [2] (setting [4]), > 10 µM; in experiment [3] (setting [5]) it was > 10 µM.

Turning to `CCCCCC1=C(NC)C(=O)C(C/C=C(\C)CCC=C(C)C)=C(O)C1=O` [Formula XLI], the EC50 in experiment [1] is 28.8 µM; in experiment [2] (setting [4]), > 10 µM; in experiment [3] (setting [5]), > 10 µM. In experiment [2], the “inhibitory activity on IL-10” value is recorded as “particular strong inhibitory activity”.

In the case of `CCCCCc1cc(O)c(C/C=C(\C)CCC=C(C)C)c(O)c1O` [Formula XXXIX], the EC50 came out at 2.82 µM in experiment [1] (setting [6]); 1.69 µM in experiment [2] (Homo sapiens, PBMC, 40 h); 6.2 µM in experiment [3] (Homo sapiens, PBMC, 6 h). In addition, the “inhibitory activity on IL-10” value in experiment [2] is recorded as “particular strong inhibitory activity”.

With Cannabigerol Quinone [Formula VI], in experiment [1], the “stronger inhibition of 15-Lox compared to Cox-2” value is on record as “over 60 fold”. The EC50 in experiment [1] (setting [6]) was determined as 0.98 µM; in experiment [2] (human PBMCs, PHA-M 10 ug/mL 40 hr) it was 1.1 µM; in experiment [3] (human PBMCs, LPS 100 ng/mL 6 hr) it was 18.5 µM.
